Tested on: CTG-2426 tumors
Experiment: PDX model CTG-2426 (myxofibrosarcoma)
Type: in vivo
Settings: athymic nude mice
Description: MBT-2 cells were obtained from the Japanese Collection of Research Bioresources Cell Bank and were maintained in DMEM supplemented with 10% FBS. MC38 cells were obtained from the NCI. 4T1 cells were obtained from ATCC and maintained in RPMI media supplemented with 10% FBS. For MBT-2 experiments, 5×10^5 MBT-2 cells were inoculated subcutaneously into the right hind flank of 6- to 8-week-old C3H mice or athymic nude mice (Charles River Laboratories, Wilmington, Mass.). For MC38 studies, 12-week old female C57BL/6 mice were inoculated with brei of MC38 tumors (in-vivo passage 6) into the right hind flank. For 4T1 studies, 7.5×10^5 4 T1 cells were inoculated subcutaneously into the right hind flank of 6- to 8-week-old female BALB/c mice or athymic nude mice (Charles River Laboratories). […] Mice were monitored for tumor growth and overt tolerability over the course of the experiment. […] Tumor volume was calculated using the formula (L×W^2)/2, where L and W refer to the length and width dimensions, respectively. Tumor growth inhibition (TGI) was calculated using the formula (1−(VT/VC))×100, where VT is the tumor volume of the treatment group on the last day of treatment, and VC is the tumor volume of the control group on the last day of treatment. […]
The activity of Compound 1 in sarcoma PDX models was evaluated as described in Example H for PDX models. […] Three mice per group were analyzed. […]

Compound: CC(C)C(=O)N1CCC(c2cc(-c3ccc(NC(=O)c4cn(C(C)C)c(=O)n(-c5ccccn5)c4=O)cc3)c3c(N)ncnn23)CC1 [Compound 1, N-(4-(4-Amino-7-(1-isobutyrylpiperidin-4-yl)pyrrolo[1,2-f][1,2,4]triazin-5-yl)phenyl)-1-isopropyl-2,4-dioxo-3-(pyridin-2-yl)-1,2,3,4-tetrahydropyrimidine-5-carboxamide]
- TGI (%): 42%

From patent US12214036B2, “Combination therapy comprising AXL/MER and PD-1/PD-L1 inhibitors” (Incyte Corporation, priority 2020, dated 2025)
